Laboratory results as given in ChEMBL document CHEMBL4431301, “The Medicinal Chemistry of Dengue Virus” (J Med Chem, 2016).

Assays:
dengue virus type 1 [1] = experiment: Antiviral activity against Dengue virus 1 Western Pacific 74 infected in african green monkey Vero cells assessed as reduction in viral replication after 48 hrs by luciferase reporter gene assay; assay type: functional, organism-based; settings: Western Pacific 74, Vero
West Nile virus [2] = experiment: Antiviral activity against West Nile virus 3356 infected in african green monkey Vero cells assessed as reduction in viral titer after 42 hrs by plaque assay; assay type: functional, organism-based; settings: West Nile virus, 3356, Vero
dengue virus type 4 [3] = experiment: Antiviral activity against Dengue virus 4 2270 infected in BHK21 cells after 48 hrs by CFI assay; assay type: functional, organism-based; settings: Dengue virus, 2270, BHK-21, 48 h
dengue virus type 2 [4] = experiment: Antiviral activity against Dengue virus 2 3295 infected in BHK21 cells after 48 hrs by CFI assay; assay type: functional, organism-based; settings: Dengue virus, 3295, BHK-21, 48 h
dengue virus type 3 [5] = experiment: Antiviral activity against Dengue virus 3 863 infected in BHK21 cells after 48 hrs by CFI assay; assay type: functional, organism-based; settings: Dengue virus, 863, BHK-21, 48 h
dengue virus type 1 [6] = experiment: Antiviral activity against Dengue virus 1 2402 infected in BHK21 cells after 48 hrs by CFI assay; assay type: functional, organism-based; settings: Dengue virus, 2402, BHK-21, 48 h
West Nile virus [7] = experiment: Antiviral activity against West Nile virus infected in african green monkey Vero cells assessed as reduction in viral titer after 42 hrs by plaque assay; assay type: functional
dengue virus type 2 [8] = experiment: Antiviral activity against Dengue virus 2 NGC infected in african green monkey Vero cells assessed as reduction in viral titer after 42 hrs by plaque assay; assay type: functional
[9] = Inhibition of N-terminal GST tagged recombinant Dengue virus 3 N-7 methyltransferase expressed in Escherichia coli BL21 cells by scintillation counting analysis; set-up: species or system dengue virus type 3
Nonstructural protein 5 = Nonstructural protein 5 (Dengue virus, UniProt V5TFZ2); experiment: Inhibition of N-terminal GST tagged recombinant Dengue virus 3 2'-O methyltransferase expressed in Escherichia coli BL21 cells by scintillation counting analysis; set-up: species or system dengue virus type 3
dengue virus type 4 [10] = experiment: Antiviral activity against Dengue virus 4 22713 infected in BHK21 cells assessed as reduction in viral titer after 48 hrs by plaque assay; assay type: functional, organism-based; settings: Dengue virus, 22713, BHK-21, 48 h
dengue virus type 1 [11] = experiment: Antiviral activity against Dengue virus 1 West Pacific infected in human A549 cells assessed as reduction in viral titer after 48 hrs by plaque assay; assay type: functional, organism-based; settings: A549, 48 h
dengue virus type 3 [12] = experiment: Antiviral activity against Dengue virus 3 34640 infected in human A549 cells assessed as reduction in viral titer after 48 hrs by plaque assay; assay type: functional, organism-based; settings: Dengue virus, 34640, A549, 48 h
dengue virus type 2 [13] = experiment: Antiviral activity against Dengue virus 2 NGC infected in human A549 cells assessed as reduction in viral titer after 48 hrs by plaque assay; assay type: functional, organism-based; settings: A549, 48 h
dengue virus type 2 [14] = experiment: Antiviral activity against Dengue virus 2 NGC infected in HeLa cells assessed as reduction in viral RNA replication after 48 hrs by luciferase assay; assay type: functional, organism-based
West Nile virus [15] = experiment: Antiviral activity against West Nile virus Kunjin preincubated for 30 mins with virus followed by cell infection for 2 hrs measured after 3 days by crystal violet staining based plaque reduction assay; assay type: functional, organism-based
Yellow fever virus = experiment: Antiviral activity against Yellow fever virus 17D Vaccine preincubated for 30 mins with virus followed by cell infection for 2 hrs measured after 6 days by crystal violet staining based plaque reduction assay; assay type: functional, organism-based
[16] = Selectivity index, ratio of CC50 for african green monkey Vero cells to EC50 for Dengue virus 2 NGC; assay type: toxicity; settings: read-out: Ratio CC50/EC50
dengue virus type 2 [17] = experiment: Antiviral activity against Dengue virus 2 NGC preincubated for 30 mins with virus followed by cell infection for 2 hrs measured after 5 days by immunostaining based plaque reduction assay; assay type: functional, organism-based
[18] = Cytotoxicity against BHK21 cells after 24 hrs by CellTiter-Glo luminescent assay; assay type: cell-based, Mesocricetus auratus, BHK-21; settings: hamster
dengue virus type 2 [19] = experiment: Antiviral activity against Dengue virus 2 infected in BHK21 cells assessed after 3 to 5 days by crystal violet staining based plaque assay; assay type: functional, organism-based; settings: BHK-21
dengue virus type 2 [20] = experiment: Antiviral activity against Dengue virus 2 infected in BHK21 cells assessed as reduction in virus replication after 24 hrs by renilla luciferase reporter gene assay; assay type: functional, organism-based; settings: BHK-21, 24 h
dengue virus type 2 [21] = experiment: Antiviral activity against Dengue virus 2 PL046 infected in human WS1 cells by immunofluorescence analysis; assay type: functional, organism-based
dengue virus type 2 [22] = experiment: Antiviral activity against Dengue virus 2 PL046 infected in mouse J774A.1 cells by immunofluorescence analysis; assay type: functional, organism-based; settings: PL046, J774.A1
dengue virus type 2 [23] = experiment: Antiviral activity against Dengue virus 2 PL046 infected in […] Hepa1-6 cells by immunofluorescence analysis; assay type: functional, organism-based; settings: PL046, Hepa1-6
dengue virus type 2 [24] = experiment: Antiviral activity against Dengue virus 2 PL046 infected in human A549 cells by immunofluorescence analysis; assay type: functional, organism-based
dengue virus type 2 [25] = experiment: Antiviral activity against Dengue virus 2 NGC infected in african green monkey Vero cells assessed as reduction in viral titer at 6 uM after 44 hrs relative to control; assay type: functional
dengue virus type 2 [26] = experiment: Antiviral activity against Dengue virus 2 NGC infected in african green monkey Vero cells assessed as reduction in viral titer at 17 uM after 44 hrs relative to control; assay type: functional
Genome polyprotein [27] = target: T1, Genome polyprotein (dengue virus type 2, UniProt P29990); experiment: Mixed noncompetitive inhibition of the Dengue virus 2 NS2B-NS3 protease expressed in Escherichia coli using Boc-GRR-AMC as substrate assessed as enzyme-substrate-inhibitor complex after 30 mins by Michaelis-Menten plot analysis
Genome polyprotein [28] = target: T1, Genome polyprotein; experiment: Mixed noncompetitive inhibition of the Dengue virus 2 NS2B-NS3 protease expressed in Escherichia coli using Boc-GRR-AMC as substrate assessed as enzyme-inhibitor complex after 30 mins by spectrofluorometry

T1 sequence (P29990 1346-1475 limits assumed): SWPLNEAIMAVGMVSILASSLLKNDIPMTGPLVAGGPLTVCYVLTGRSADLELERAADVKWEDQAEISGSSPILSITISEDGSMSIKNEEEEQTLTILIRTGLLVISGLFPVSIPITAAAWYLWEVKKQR
T1 sequence (P29990 1476-2093 limits assumed): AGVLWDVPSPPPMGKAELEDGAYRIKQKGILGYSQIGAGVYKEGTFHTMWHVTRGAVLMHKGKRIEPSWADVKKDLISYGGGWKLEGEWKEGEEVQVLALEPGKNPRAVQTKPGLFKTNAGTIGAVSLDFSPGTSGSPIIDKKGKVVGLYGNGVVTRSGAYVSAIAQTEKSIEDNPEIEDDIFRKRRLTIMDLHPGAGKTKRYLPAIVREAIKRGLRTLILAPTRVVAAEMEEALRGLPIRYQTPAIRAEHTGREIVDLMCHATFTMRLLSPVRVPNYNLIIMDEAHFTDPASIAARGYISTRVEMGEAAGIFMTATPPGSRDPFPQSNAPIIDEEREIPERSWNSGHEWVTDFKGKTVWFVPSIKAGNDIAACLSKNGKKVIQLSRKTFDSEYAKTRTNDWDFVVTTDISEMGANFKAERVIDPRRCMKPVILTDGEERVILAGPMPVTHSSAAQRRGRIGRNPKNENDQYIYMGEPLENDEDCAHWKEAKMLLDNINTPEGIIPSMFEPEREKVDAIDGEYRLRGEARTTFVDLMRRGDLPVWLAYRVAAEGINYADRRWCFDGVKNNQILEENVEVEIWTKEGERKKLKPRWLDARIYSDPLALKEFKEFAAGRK
Sequence of Nonstructural protein 5 (V5TFZ2 whole entry): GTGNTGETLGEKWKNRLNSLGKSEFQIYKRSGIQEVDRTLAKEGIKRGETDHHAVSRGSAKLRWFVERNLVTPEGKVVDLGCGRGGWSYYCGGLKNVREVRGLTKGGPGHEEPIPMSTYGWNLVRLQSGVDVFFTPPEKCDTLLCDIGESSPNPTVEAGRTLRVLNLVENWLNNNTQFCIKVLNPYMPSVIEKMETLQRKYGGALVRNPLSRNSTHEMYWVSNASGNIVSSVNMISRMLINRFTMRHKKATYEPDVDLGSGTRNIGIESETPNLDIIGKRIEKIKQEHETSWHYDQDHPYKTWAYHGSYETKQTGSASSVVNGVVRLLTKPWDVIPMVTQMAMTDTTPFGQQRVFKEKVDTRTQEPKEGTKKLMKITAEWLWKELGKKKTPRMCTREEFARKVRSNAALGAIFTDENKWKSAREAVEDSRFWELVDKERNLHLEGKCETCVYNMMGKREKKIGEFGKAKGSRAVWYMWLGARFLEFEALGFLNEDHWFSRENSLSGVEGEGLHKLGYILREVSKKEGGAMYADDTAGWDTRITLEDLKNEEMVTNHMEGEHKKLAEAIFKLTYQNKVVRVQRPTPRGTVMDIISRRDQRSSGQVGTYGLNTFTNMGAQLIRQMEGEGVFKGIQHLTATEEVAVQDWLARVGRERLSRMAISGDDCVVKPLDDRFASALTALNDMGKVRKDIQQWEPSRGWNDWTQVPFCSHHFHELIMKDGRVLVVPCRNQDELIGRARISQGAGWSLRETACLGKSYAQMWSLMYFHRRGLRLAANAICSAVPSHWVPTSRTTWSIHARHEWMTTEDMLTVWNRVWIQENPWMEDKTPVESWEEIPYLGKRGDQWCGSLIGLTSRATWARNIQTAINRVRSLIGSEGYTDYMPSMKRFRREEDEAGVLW

## O=C(c1ccccc1)N1N=C(c2cccs2)CC1c1ccc(Cl)cc1 (stereo not given)
Dengue virus type 1 [1]
  EC50: 17000 nM
West Nile virus [2]
  EC50: 28000 nM

## CCCC(=O)O[C@H]1CN2CC[C@H](O)[C@@H]2[C@@H](O)[C@@H]1O [CELGOSIVIR]
Dengue virus type 4 [3]
  EC50: 220 to 680 nM
Dengue virus type 2 [4]
  EC50: 200 nM
Dengue virus type 3 [5]
  EC50: 220 to 680 nM
Dengue virus type 1 [6]
  EC50: 220 to 680 nM

## COC(=O)c1c(-c2c(Cl)cccc2Cl)noc1-c1cnn(-c2cccc(Cl)c2)c1C(F)(F)F
West Nile virus [7]
  EC90: 0.31 nM
Dengue virus type 2 [8]
  EC90: 5.2 nM

## N[C@@H](CCSC[C@H]1O[C@@H](n2cnc3c(NCc4cccc(Cl)c4)ncnc32)[C@H](O)[C@@H]1O)C(=O)O
[9]
  Ki: 820 nM
Nonstructural protein 5
  Ki: 170 nM

## O=C1C[C@]2(C(=O)Nc3ccc(Cl)cc32)c2cnn(Cc3ccc(Cl)cc3)c2N1
Dengue virus type 4 [10]
  EC50: > 20000 nM
Dengue virus type 1 [11]
  EC50: > 20000 nM
Dengue virus type 3 [12]
  EC50: 10 to 80 nM
Dengue virus type 2 [13]
  EC50: 10 to 80 nM
Dengue virus type 2 [14]
  EC50: 1900 nM

## C/C(=N\Nc1ccccc1)c1sc(-c2cc(Cl)nc(Oc3ccc(Cl)cc3)c2)nc1C
West Nile virus [15]
  IC50: 3800 nM
Yellow fever virus
  IC50: 1600 nM
[16]
  selectivity ratio: > 83
Dengue virus type 2 [17]
  IC50: 1200 nM

## CCN(CC)Cc1cc(Nc2ccnc3cc(Cl)ccc23)ccc1O [AMODIAQUINE]
[18]
  CC50 at 24 h: 52100 nM
Dengue virus type 2 [19]
  EC50: 1080 nM
Dengue virus type 2 [20]
  EC50: 7410 nM

## CCN(CCO)CCCC(C)Nc1ccnc2cc(Cl)ccc12 (stereo not given) [HYDROXYCHLOROQUINE]
Dengue virus type 2 [21]
  IC50: 9700 to 12900 nM
Dengue virus type 2 [22]
  IC50: 9700 to 12900 nM
Dengue virus type 2 [23]
  IC50: 9700 to 12900 nM
Dengue virus type 2 [24]
  IC50: 9700 to 12900 nM

## O=C(Nc1cccc(Cn2cc(-c3cccc(S(=O)(=O)Nc4ccccc4C(=O)O)c3)cn2)c1)c1ccc(C(=O)c2ccccc2)cc1
Dengue virus type 2 [25]
  fold change (FC): 3.4
Dengue virus type 2 [26]
  fold change (FC): 4.5

## O=C1Cc2ccc(F)cc2C[C@@H]1C1=Cc2ccc(F)cc2CC1
Genome polyprotein [27]
  Ki: 15000 nM
Genome polyprotein [28]
  Ki: 7000 nM
